Measured values taken from patent US20250205252A1, “7-KETOLITHOCHOLIC ACID FOR USE IN THE TREATMENT OF GUT DYSBIOSIS AND AS A PREBIOTIC” (NZP UK Limited, priority 2022, published 2025).
Read-outs that look alike come from different tables or passages of the source.

Columns and labels:
[1] = system: Bacteroides-Prevotella (BAC303); assay: 3-stage gut model, flow-FISH enumeration, Bacteroides-Prevotella; conditions: 400 mg/day, 512 h; for Bacteroides-Prevotella (BAC303) population numbers after treatment: transverse region (V2)
[2] = system: total bacteria (EUB-I-II-III); assay: 3-stage gut model, flow-FISH enumeration, total bacteria; conditions: for total bacteria (EUB-I-II-III) after treatment: proximal region (V1), 400 mg/day, 512 h (SS2)
[3] = system: bacterial metabolites; assay: 3-stage gut model, metabolite spectra analysis by 1H NMR; conditions: V3 (distal colon)
[4] = system: Eubacterium rectale; assay: 3-stage gut model, bacterial composition by 16s rRNA sequencing, Eubacterium rectale; conditions: after treatment, proximal region of the colon; before 4%
[5] = system: Eubacterium rectale (Erec482); assay: 3-stage gut model, flow-FISH enumeration, Eubacterium rectale; conditions: across V1, V2 and V3; not statistically significant
[6] = system: Desulfovibrionales (DSV687); assay: 3-stage gut model, flow-FISH enumeration, Desulfovibrionales; conditions: FIG. 6
[7] = system: Roseburia spp. (Rrec584); assay: 3-stage gut model, flow-FISH enumeration, Roseburia; conditions: across V1, V2 and V3; not statistically significant
[8] = system: Desulfovibrionales and Dessulfuromonadales; assay: Batch culture fermentation of faecal slurry, flow-FISH enumeration (DSV); assay type: cell-based
[9] = system: Atopobium-Coriobacterium; assay: Batch culture fermentation of faecal slurry, flow-FISH enumeration (ATO); assay type: cell-based
[10] = system: Eubacterium eligens; assay: 3-stage gut model, bacterial composition by 16s rRNA sequencing, Eubacterium eligens; conditions: after treatment, 2% before
[11] = system: SCFAs acetate, propionate, butyrate and lactate; assay type: cell-based; conditions: preliminary results from one donor, FIG. 3
[12] = system: Bacteroides xylanisolvens; assay: 3-stage gut model, bacterial composition by 16s rRNA sequencing, Bacteroides xylanisolvens; conditions: after treatment, transverse region; 2% before
[13] = system: Clostridium species; assay: 3-stage gut model, bacterial composition by 16s rRNA sequencing, Clostridium; assay type: cell-based; conditions: after treatment; from 5.6%
[14] = system: Clostridium histolyticum (Chis150); assay: 3-stage gut model, flow-FISH enumeration, Clostridium histolyticum; assay type: cell-based; conditions: FIG. 6
[15] = assay type: in vivo, CD-1 mice
Procedure: The study design: • CTRL 1 Mice on normal diet for 60 days (5 mice) • CTRL 2 Mice on normal diet with 7KLCA at 10 mg/kg for 60 days (5mice) • CTRL 3 Mice on normal diet for 30 days, then 30 days on a high glucose diet (5 mice) • Treated Mice on normal diet for 30 days, then 30 days on a high glucose diet with 7KLCA throughout the study (5 mice)
Standard diet (10.6% fat J/J, 29.0% protein J/J and 60.4% carbohydrate J/J). High glucose diet (10.5% fat J/J, 16.4% protein J/J and 73.1% carbohydrate J/J). For all experimental group, free accesses to tap water The animals were kept in group of 5 animals/sex/group/cage in Plexiglas cages.
Experiments were carried out in 8-12-week-old male CD-1 mice according to the guidelines for the safe use and care of experimental animals in accordance with the Italian D.L. no. 116 of 27 Jan. 1992 and associated guidelines in the European Communities Council (86/609/ECC and 2010/63/UE) including the 3Rs concept (Kilkenny et al, 2010; McGrath et al, 2015). Animals were housed with ad libitum access to food and water and maintained on a 12-hour light/dark cycle. Experimental study groups were randomized and blinded. The animals in the control groups were handled in an identical manner to the treated group using the respective vehicle and the same volume of administration. Tested item formulation or vehicle was administered by oral gavage. The body weight was recorded once before the assignment to the experimental groups, on the first day of administration, and then weekly during the treatment.
The dose of 7-KLCA used in this study was 10 mg/kg/day. The vehicle used was DMSO in saline solution (NaCl 0.9%), 1/3 w/w. 7-KLCA was solubilised in DMSO (1 part w/w) and then resuspended in saline solution (3 parts w/w). This solution (200 μl/mouse) was prepared freshly every day and was kept under magnetic stirring during the daily administration.
The body weight was recorded once before the assignment to the experimental groups, on the first day of administration, and then weekly.
General clinical observations were performed at least once a day, at the same hour. The health condition of the animals was recorded.
After overnight fasting, blood of the animals was collected in serum separator tubes. FIGS. 10 and 13 show the change in body weight for the mice in the study.

[16] = system: bacterial metabolites lactate, acetate, butyrate, propionate and valerate; assay: 3-stage gut model, bacterial metabolite quantification by GC-MS; assay type: cell-based
[17] = system: Faecalibacterium prausnitzii; assay: 3-stage gut model, bacterial composition by 16s rRNA sequencing, F. prausnitzii; conditions: after treatment
[18] = system: Dialister pneumosintes; assay: 3-stage gut model, bacterial composition by 16s rRNA sequencing, Dialister pneumosintes; conditions: after treatment, before 7%
[19] = system: Streptococcus spp. (Strp); assay: 3-stage gut model, flow-FISH enumeration, Streptococcus; conditions: FIG. 6
[20] = system: Bifidobacterium spp.; assay: 3-stage gut model, bacterial composition by 16s rRNA sequencing, Bifidobacterium; conditions: after treatment, V3 (distal colon); lower than the baseline
[21] = system: Bifidobacterium species; assay: Batch culture fermentation of faecal slurry, flow-FISH enumeration (BIF); assay type: cell-based
[22] = system: Total bacteria; assay: Batch culture fermentation of faecal slurry, flow-FISH enumeration (Total); assay type: cell-based; conditions: 7-KLCA at 5 and 10 h, maltodextrin only at 5 h
[23] = system: Bifidobacterium spp. (Bif164); assay: 3-stage gut model, flow-FISH enumeration, Bifidobacterium
[24] = system: Faecalibacterium prausnitzii (Fprau655); assay: 3-stage gut model, flow-FISH enumeration, Faecalibacterium prausnitzii
[25] = HGD+7KLCA vs CTRL 3 (HGD), day 60
[26] = normal diet 60 days, CTRL 2 vs CTRL 1
[27] = V1, V2 and V3, not statistically significant

## C[C@H](CCC(=O)O)[C@H]1CC[C@H]2[C@@H]3[C@@H](O)C[C@@H]4C[C@H](O)CC[C@]4(C)[C@H]3CC[C@]12C [UDCA, ursodeoxycholic acid, reference compound]
[1]
  Bacteroides-Prevotella (BAC303) population numbers after treatment: 6.94±0.33 Log10 CFU/mL
[2]
  total bacteria (EUB-I-II-III) after treatment: 8.74±0.50 Log10 CFU/mL

## C[C@H](CCC(=O)O)[C@H]1CC[C@H]2[C@@H]3C(=O)C[C@@H]4C[C@H](O)CC[C@]4(C)[C@H]3CC[C@]12C [7-KLCA, 3α-hydroxy-7-oxo-5β-cholanic acid]
[3]; after treatment
  alanine in 1H NMR spectrum: detected
[3]; after vs before treatment
  acetate peaks in 1H NMR spectrum: higher peaks
  bacterial metabolite iso-leucine in 1H NMR spectrum: presence after treatment
  bacterial metabolite leucine in 1H NMR spectrum: presence after treatment
  propionate peaks in 1H NMR spectrum: higher peaks
[3]; after vs prior to treatment
  peaks of butyrate in 1H NMR spectrum: greater
[4]
  abundance of Eubacterium rectale: 18%
[5]
  change in Eubacterium rectale between baseline and after treatment: increase
[6]
  increases in pathogenic Desulfovibrionales: no statistically significant increases
[7]
  change in Roseburia spp. between baseline and after treatment: increase
[8]
  increases in pathogenic species Desulfovibrionales and Desulfuromonadales: no increases
[9]
  increases in pathogenic species Atopobium, Coriobacterium: no increases
[1]; distal region (V3)
  Bacteroides-Prevotella population numbers after treatment: 7.69±0.15 Log10 CFU/mL
[1]
  Bacteroides-Prevotella (BAC303) population numbers after treatment: 8.47±0.24 Log10 CFU/mL
[10]; V1
  abundance of Eubacterium eligens: 2%
[10]; V2
  abundance of Eubacterium eligens: 5%
[10]; V3
  abundance of Eubacterium eligens: 2%
[11]
  SCFA production (metabolic profile): promoting beneficial SCFA production
[12]
  abundance of Bacteroides xylanisolvens: 9%
[13]
  Clostridium species, of total bacterial species detected: 4.5%
[14]
  increases in pathogenic Clostridium histolyticum: no statistically significant increases
[15]; 10 mg/kg, 60 days, oral gavage
  toxicity: no toxicity was observed
[15]; HGD+7KLCA vs CTRL 3 (HGD), after 60 days
  blood glucose levels: significantly lower
[15]; [25]
  HDL cholesterol levels: slight, though not significant, increase
  LDL cholesterol levels: significantly reduced
  total cholesterol levels: significantly reduced
[15]; after switch to HGD diet (days 30-60), 10 mg/kg/day, CTRL 3 gained significantly more
  weight gain: gained a similar amount of weight to the mice on the normal diet
[15]; initial 30-day period on standard diet, treated group vs CTRL 3
  weight gains: no significant difference
[15]; normal diet 30 days followed by HGD diet 30 days
  insulin levels: trend of increased insulin levels
[15]; normal diet 60 days, 10 mg/kg oral gavage (CTRL 2) vs CTRL 1
  weight gains: no significant difference
[15]; [26]
  blood glucose levels: no significant difference
  levels of HDL cholesterol: no significant difference
  levels of LDL cholesterol: no significant difference
  levels of total cholesterol: no significant difference
[16]; GC-MS, after treatment vs SS1
  change in acetate concentration: no statistically significant changes
  change in butyrate concentration: no statistically significant changes
  change in valerate concentration: no statistically significant changes
[16]; [27]
  change in lactate concentration: increases measured
  change in propionate concentration: increases measured
[17]; V3 (distal colon), from 0.6%
  abundance of F. prausnitzii: 10%
[17]; proximal region of the colon (V1), before 4%
  abundance of Faecalibacterium prausnitzii: 17%
[17]; transverse region of the colon (V2)
  abundance of F. prausnitzii, of total bacterial composition: 18%
[18]; distal colon (V3)
  Dialister pneumosintes, percentage of total bacteria composition: 3%
[18]; transverse colon (V2)
  Dialister pneumosintes, percentage of total bacteria composition: 3%
[19]
  increases in pathogenic Streptococcus: no statistically significant increases
[20]
  abundance of Bifidobacterium spp.: 5%
[2]; all three regions of the model, not significant
  numbers of total bacteria after treatment versus Baseline: greater
[2]
  total bacteria (EUB-I-II-III) after treatment: 9.35±0.16 Log10 CFU/mL
[21]; at T5, vessels containing 7-KLCA and maltodextrin
  Bifidobacterium numbers: 7.45±0.16 Log10 CFU/mL
[21]; at T10, vessels containing 7-KLCA and maltodextrin
  Bifidobacterium numbers: 7.55±0.21 Log10 CFU/mL
[21]; batch culture, 7-KLCA at 5 and 10 h
  change in Bifidobacterium spp. (BIF) numbers, statistical significance: statistically significant increases
[21]; starting value (0 h), vessels containing 7-KLCA and maltodextrin
  Bifidobacterium numbers: 6.48±0.14 Log10 CFU/mL
[22]
  change in total bacteria, statistical significance: statistically significant increases
[23]; 3-stage gut model
  increase in Bifidobacterium spp. (Bif164) between Baseline and after treatment, statistical significance: no statistically significant increases
[23]; across all three stages (V1, 2 and 3)
  observed change in Bifidobacterium spp. numbers after treatment: observed increase
[23]; transverse region, Baseline Log 10 7.54±1.06 CFU/mL
  Bifidobacterium spp. (Bif164) numbers after treatment: 8.16±0.13 Log 10 CFU/mL
[24]; 7KLCA: V2 and V3
  change in numbers of Faecalibacterium prausnitzii between baseline and after treatment: statistically significant increases
[24]; V2, baseline Log10 7.47±0.91 CFU/mL
  numbers of Faecalibacterium prausnitzii after treatment: 8.81±0.09 Log10 CFU/mL
[24]; V3, baseline Log10 6.95±0.97 CFU/mL
  numbers of Faecalibacterium prausnitzii after treatment: 8.39±0.22 Log10 CFU/mL
